Data taken from article PMC10831786 (Virus Research, 2024).
Values joined by “and” are separate entries in the source; they are usually repeats but may differ in a detail not shown here. Equal values may be shown once. Where a name gives a salt, the structure may show the parent alone. Read-outs that look alike come from different tables or passages of the source.

Tests used:
Vero E6 cells = test: MTS assay, growth inhibition and toxicity in non-infected Vero E6 cells; type: cell-based, African green monkey; details: for Concentrations at which drug is cytotoxic: Vero E6, MTS
Procedure: Detailed methods are provided in Supplementary Information.
Vero E6 and BEC-hACE2 cells were grown to 70-80% density in their maintenance media and exposed to various concentrations of ipecac alkaloids (0.0125 – 200 µM) under standard culture conditions for 48-72 h and 24 h, respectively. Controls with varying amounts of DMSO and no DMSO were included also. Vero E6 cells were incubated with drugs in 2% FBS-EMEM, while BEC-HACE2 cells were grown and treated in complete PCS-300-03 medium with supplements. Similar treatments were also conducted using fully confluent non-growing BEC-hACE2 cells. At the end of the exposure period, MTS reagent (Promega G3580) was added at 1/5th of the medium volume and color was allowed to develop by incubation of the plates for an hour in a cell culture incubator. To stop reactions, SDS was added to a final concentration of 2% and optical density of samples was measured at 450 or 490 nm, depending on the model of spectrophotometer (PharmaciaBiotech, NJ, USA; UV spectrophotometer, model Ultrospec2000) or plate reader (Molecular Devices, CA, USA; model Filter Max F5 Multi-mode microplate reader) available at the time of experiment.

[1] = system: protein synthesis in BEC-hACE2 cells; test: Puromycin pulse labeling, protein synthesis in cultured BEC-hACE2 cells; type: cell-based, human; details: for inhibition at 1 µM: BEC-hACE2, 1 μM
SARS-CoV-2 = test: Antiviral activity against SARS-CoV-2 in BEC-hACE2 cells (RT-qPCR)
[2] = system: protein synthesis in Vero E6 cells; test: Puromycin pulse labeling, protein synthesis in cultured Vero E6 cells; type: cell-based, African green monkey; details: for IC50: Chlorocebus sabaeus
Procedure: Vero E6 cells were seeded at 30,000 cells per cm^2 in 6-well plates. […] Control experiments were conducted in medium alone and medium containing cycloheximide or DMSO. After 12 min, cells were washed with 37° PBS and then allowed to recover in drug-free 2 % FBS-EMEM for 30 min. Cell pellets, collected by trypsinization and centrifugation for 5 min at 5 000 rpm at 4 °C, were re-suspended in ice-cold PBS and centrifugation was repeated. Collected cells were stored at −80 °C.
Antibodies used were anti-puromycin monoclonal (TFS; MABE34), goat anti-mouse-HRP (TFS, Invitrogen; G21040), rabbit anti-β-actin (Cell Signaling, 4967S, lot 9) and HRP-conjugated goat-anti-rabbit (Cell Signaling, 7074S, lot 27). Protein extract and immunoblotting methods were done by standard methods reported here as Supplementary Information.
Vero E6 cells were seeded at 30,000 cells per cm^2 in 6-well plates. […] Puromycin labelling protocols have been well established by other laboratories and a general review of the methods has been published^79. Control experiments were conducted in medium alone and medium containing cycloheximide or DMSO. Following incubation with puromycin for 12 min, the medium was quickly removed and cells were washed with warm PBS and then allowed to recover in drug-free 2% FBS-EMEM for 30 min. Cell pellets, collected by trypsinization and centrifugation for 5 min at 5 000 rpm at 4°C, were re-suspended in ice-cold PBS and the centrifugation was repeated. Collected cells were stored at -80°C until subjected to the protein preparation as noted below.
Defrosted cell pellets were re-suspended in 120 µl of RIPA (radio-immunoprecipitation) buffer (Sigma; R0278) containing 7 µl of protease inhibitors (Sigma; P8340). Samples were incubated on ice for 40 min with occasional gentle mixing. Cell debris was removed by a 20 min centrifugation at 16,000 g at 4°C and supernatants were stored at -80°C. Protein was measured by the Pierce^TM bicinchoninic acid (BCA) assay (Thermo Fisher Scientific [TFS], MA, USA; 23250), using bovine serum albumin as a standard, according to protocols recommended by the manufacturer.
For immunoblotting, 10 µg of protein was combined with Laemmli buffer containing 10% β-mercaptoethanol, heated at 95°C for 5 min and loaded on 4-20% Mini-PROTEAN® TGX™ precast protein gels. Samples were resolved by electrophoresis in Tris-Gly-SDS buffer and transferred to nitrocellulose membranes. Transfer was conducted in Tris-Gly buffer containing 20% methanol at 4-6 V/cm^2 for one hour. Membranes were blocked in 10 mM sodium phosphate buffer containing 150 mM NaCl (pH 7.8), 5% milk and 0.1% TWEEN20 (PBST) at room temperature for at least one hour, and then incubated overnight with primary anti-puromycin antibodies (TFS; MABE343 mouse monoclonal antibodies clone 12D10; 1:12,500) at 4°C. Membranes were washed for five minutes three times in PBST and incubated with secondary goat anti-mouse horseradish peroxidase (HRP) -conjugated antibodies (TFS, Invitrogen; G21040; 1:25,000) for 90 min. After three more rounds of washing as above, membranes were incubated with an HRP substrate (TFS; 34077) for one minute and chemoluminescence was visualized by exposing membranes to film for 1, 2, 5, 10 and 30 min.
For β-actin staining, the same membranes used for puromycin immunostaining were washed four times, 5 min each, in 20 mM Tris-buffered saline containing 500 mM sodium chloride (pH 7.5) and 0.1% TWEEN20 (TBST) and stripped by two rounds of 20 and 10 min washes at 50°C in glycine buffer (pH 2.2) containing 0.1 % SDS (W/V) and 1% TWEEN20. Membranes were then washed at room temperature with PBS (3x10 min) and PBST (2x5min). Blocking, primary (1:4,000) and secondary (1:5,000) antibody staining was conducted as above. Primary rabbit anti-β-actin antibodies were obtained from Cell Signaling (4967S, lot 9) and secondary HRP-conjugated goat-anti-rabbit antibodies were from the same company (7074S, lot 27). […]

[3] = target: T1, l-type calcium current ICaL (Cavia porcellus, UniProt O35505); test: Patch clamp recording of ICaL in guinea pig ventricular myocytes; type: cell-based; details: for IC50: GP cardiomyocytes, read-out: IC50, calcium channel (ICaL) blocking activity; for Kd: guinea pig ventricular myocytes, Langmuir isotherm, 5-60 μM, read-out: KD for inhibition of ICaL
T1 construct: from tissue; host or cells: freshly dissociated guinea pig ventricular myocytes

[4] = Homo sapiens, read-out: Protein synthesis inhibition,%
[5] = Severe acute respiratory syndrome coronavirus 2, read-out: Anti-SARS-CoV2, IC50, subconfluent BEC-hACE2, drug after viral absorption, 24 hpi
[6] = Severe acute respiratory syndrome coronavirus 2, read-out: Anti-SARS-CoV-2 IC50, BEC-hACE2, 24 hpi
[7] = Vero C1008, read-out: IC50, host protein synthesis
[8] = Vero C1008, Vero E6 cells, 1 h exposure, puromycin labeling, read-out: 50 % inhibitory activities, protein synthesis

T1 sequence (O35505 whole entry): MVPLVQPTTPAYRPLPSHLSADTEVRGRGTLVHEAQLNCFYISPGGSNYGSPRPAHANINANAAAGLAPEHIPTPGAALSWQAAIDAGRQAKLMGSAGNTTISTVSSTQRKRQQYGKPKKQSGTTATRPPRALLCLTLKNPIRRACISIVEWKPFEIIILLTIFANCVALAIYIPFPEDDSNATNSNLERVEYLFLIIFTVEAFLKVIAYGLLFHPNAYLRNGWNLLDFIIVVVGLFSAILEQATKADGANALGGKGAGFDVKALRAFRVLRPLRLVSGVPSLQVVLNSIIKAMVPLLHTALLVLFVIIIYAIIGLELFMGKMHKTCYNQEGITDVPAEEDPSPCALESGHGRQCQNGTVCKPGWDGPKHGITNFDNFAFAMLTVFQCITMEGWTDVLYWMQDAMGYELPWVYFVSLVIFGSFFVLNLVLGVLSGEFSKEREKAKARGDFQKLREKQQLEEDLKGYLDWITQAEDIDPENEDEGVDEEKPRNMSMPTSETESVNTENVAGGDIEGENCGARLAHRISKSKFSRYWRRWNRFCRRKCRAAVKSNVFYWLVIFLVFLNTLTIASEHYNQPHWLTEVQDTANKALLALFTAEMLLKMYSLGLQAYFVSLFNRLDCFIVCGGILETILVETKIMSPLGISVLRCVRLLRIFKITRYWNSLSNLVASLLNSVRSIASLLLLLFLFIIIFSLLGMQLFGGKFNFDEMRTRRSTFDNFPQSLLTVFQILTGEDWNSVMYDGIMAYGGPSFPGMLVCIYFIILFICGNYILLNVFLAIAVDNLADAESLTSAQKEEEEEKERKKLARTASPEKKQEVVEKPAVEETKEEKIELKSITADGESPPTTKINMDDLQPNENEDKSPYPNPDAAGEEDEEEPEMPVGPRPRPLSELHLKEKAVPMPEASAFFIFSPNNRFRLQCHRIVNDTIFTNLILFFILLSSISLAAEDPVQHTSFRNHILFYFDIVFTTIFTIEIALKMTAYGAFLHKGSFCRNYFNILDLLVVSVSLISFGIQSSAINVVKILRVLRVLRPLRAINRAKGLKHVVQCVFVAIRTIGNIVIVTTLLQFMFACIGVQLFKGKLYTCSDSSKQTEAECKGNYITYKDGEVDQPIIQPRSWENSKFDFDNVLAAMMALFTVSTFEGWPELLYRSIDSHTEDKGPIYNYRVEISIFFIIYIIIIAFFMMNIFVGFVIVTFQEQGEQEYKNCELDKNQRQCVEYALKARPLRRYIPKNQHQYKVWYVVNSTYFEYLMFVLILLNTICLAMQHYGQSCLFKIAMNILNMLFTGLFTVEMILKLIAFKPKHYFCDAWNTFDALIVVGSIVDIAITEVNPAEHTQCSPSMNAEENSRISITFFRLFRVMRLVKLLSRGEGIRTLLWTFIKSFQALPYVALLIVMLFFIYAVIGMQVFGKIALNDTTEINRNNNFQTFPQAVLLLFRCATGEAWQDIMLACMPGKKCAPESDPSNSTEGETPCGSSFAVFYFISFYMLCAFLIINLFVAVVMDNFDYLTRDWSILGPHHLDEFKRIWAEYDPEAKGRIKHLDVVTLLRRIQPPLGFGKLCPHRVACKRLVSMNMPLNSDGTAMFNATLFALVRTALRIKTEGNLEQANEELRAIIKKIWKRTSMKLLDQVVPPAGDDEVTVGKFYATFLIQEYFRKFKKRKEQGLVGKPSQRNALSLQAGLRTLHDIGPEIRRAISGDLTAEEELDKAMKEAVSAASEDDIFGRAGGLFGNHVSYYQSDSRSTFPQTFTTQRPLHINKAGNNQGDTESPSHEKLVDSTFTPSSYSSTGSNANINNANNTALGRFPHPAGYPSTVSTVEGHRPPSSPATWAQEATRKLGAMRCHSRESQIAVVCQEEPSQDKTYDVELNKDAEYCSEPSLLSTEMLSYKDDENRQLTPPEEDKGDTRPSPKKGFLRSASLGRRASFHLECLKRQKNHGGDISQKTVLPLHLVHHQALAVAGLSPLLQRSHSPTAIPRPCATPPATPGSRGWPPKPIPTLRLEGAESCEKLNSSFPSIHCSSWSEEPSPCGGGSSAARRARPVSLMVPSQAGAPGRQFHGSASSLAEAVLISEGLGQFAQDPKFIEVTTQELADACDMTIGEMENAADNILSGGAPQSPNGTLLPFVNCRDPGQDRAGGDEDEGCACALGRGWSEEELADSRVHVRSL

## CC[C@H]1CN2CCc3cc(OC)c(OC)cc3[C@@H]2C[C@@H]1C[C@H]1NCCc2cc(OC)c(OC)cc21 [Emetine, 2H-Benzoaquinolizine, 3-ethyl-1,3,4,6,7,11b-hexahydro-9,10-dimethoxy-2-(1R)-1,2,3,4-tetrahydro-6,7-dimethoxy-1-isoquinolinylmethyl-, dihydrochloride, (2S,3R,11bS)-, reference compound]
Vero E6 cells
  Concentrations at which drug is cytotoxic: higher than 10 μM
[1]; Homo sapiens, read-out: IC50, protein synthesis
  IC50: ~200 nM
[1]; [4]
  inhibition at 0.05 µM: 7%
  inhibition at 0.1 µM: 30%
  inhibition at 0.3 µM: 80%
  inhibition at 1000 µM: 97%
[1]; Homo sapiens, 0.5 μM, read-out: Inhibition of translation activity in host cells
  inhibition at 0.5 µM: ≥ 90%
[1]; Homo sapiens
  inhibition at 1 µM: 97%
[1]; Homo sapiens, BEC-hACE2, 10 μM
  inhibition at 10 µM: 100%
[1]; Homo sapiens, BEC-hACE2, read-out: IC50, protein synthesis inhibition
  IC50: ~120 nM
SARS-CoV-2; [5]
  IC50: 52 ± 3 nM
SARS-CoV-2; [6]
  IC50: ~52 nM
SARS-CoV-2; Severe acute respiratory syndrome coronavirus 2, read-out: Inhibition of viral propagation
  inhibition at 0.5 µM: ≥ 90%
SARS-CoV-2; read-out: Anti-SARS-CoV-2 IC50, BEC-hACE2, 24 hpi
  IC50: 50 to 100 nM
[2]; [7]
  IC50: 150 to 170 nM
[2]; [8]
  IC50: ~110 nM
[2]; Vero E6, 0.01 μM, listed as EMT
  Protein synthesis,%: 20%
[2]; Vero E6, 0.03 μM
  Protein synthesis,%: 50%
[2]; Vero E6, 0.1 μM
  Protein synthesis,%: 50%
[2]; Vero E6, 1 μM
  Protein synthesis,%: terminating all translation activity
[2]; Vero E6, 1 μM, listed as EMT
  Protein synthesis,%: 100%
[2]; Vero E6, > 10 μM
  Protein synthesis, puromycilation signal: signal increase
[2]; Vero E6 cells
  Concentration above which inhibition of puromycilation is not sustained: > 10 µM
[3]; 0.5 μM
  Impact on ICaL: 1%
[3]; 5 μM
  inhibition at 5 µM: ~10%
[3]
  IC50: ~57000 nM and 40000 to 60000 nM
  Kd: 57000 nM
[3]; GP ventricular myocytes, assuming 25 µM
  Estimated reduction in ICaL: over thirty-three percent

## CC[C@H]1CN2CCc3cc(OC)c(OC)cc3[C@@H]2C[C@@H]1C[C@@H]1NCCc2cc(OC)c(OC)cc21.Cl.Cl [Isoemetine, 2H-Benzoaquinolizine, 3-ethyl-1,3,4,6,7,11b-hexahydro-9,10-dimethoxy-2-(1S)-1,2,3,4-tetrahydro-6,7-dimethoxy-1-isoquinolinylmethyl-, dihydrochloride, (2S,3R,11bS)-]
Vero E6 cells; MTS, 72 h, read-out: Fifty percent effect (CC50) in non-infected Vero E6
  CC50: 114000 ± 13100 nM
[1]; BEC-hACE2, 10 μM, 10 µM
  Protein synthesis inhibition,%: 20%
[1]; BEC-hACE2, 10 μM, listed as ISOEMT, 10 µM
  Protein synthesis inhibition,%: 18%
[1]; BEC-hACE2, 30 μM, 30 µM
  Protein synthesis inhibition,%: 50%
[1]; BEC-hACE2, 30 μM, listed as ISOEMT, 30 µM
  Protein synthesis inhibition,%: 47%
SARS-CoV-2; read-out: Anti-SARS-CoV2, IC50, subconfluent BEC-hACE2, drug after viral absorption, 24 hpi
  IC50: 16500 nM
SARS-CoV-2; read-out: Anti-SARS-CoV2, IC50, subconfluent BEC-hACE2, drug after viral absorption, 24 hpi, listed as ISOEMT
  IC50: 16500 ± 6240 nM
[2]; Vero E6, 0.1 μM
  Protein synthesis,%: 0%
[2]; Vero E6, >1 μM
  Protein synthesis, puromycilation signal: signal increase
[2]; Vero E6 cells
  Concentration above which inhibition of puromycilation is not sustained: > 1 µM
[3]
  Kd: 42000 nM

## CCC1=C(C[C@H]2NCCc3cc(OC)c(OC)cc32)C[C@H]2c3cc(OC)c(OC)cc3CCN2C1 [DHE4, 4H-Benzo[a]quinolizine, 3-ethyl-1,6,7,11b-tetrahydro-9,10-dimethoxy-2-[[(1R)-1,2,3,4-tetrahydro-6,7-dimethoxy-1-isoquinolinyl]methyl]-, (11bS)-]
Vero E6 cells
  Concentrations at which drug is cytotoxic: higher than 10 μM
[1]; Homo sapiens
  inhibition at 1 µM: 97%
SARS-CoV-2; SARS-CoV-2, BEC-hACE2
  SI from MTS CC50 (50 % effect): exceed 1500
SARS-CoV-2; [5]
  IC50: 88 ± 23 nM
SARS-CoV-2; [6]
  IC50: 50 to 100 nM
[2]; [7]
  IC50: 150 to 170 nM
[2]; [8]
  IC50: ~210 nM
[2]; Vero E6, 0.01 μM
  Protein synthesis,%: 15%
[2]; Vero E6, 0.1 μM
  Protein synthesis,%: 20%
[2]; Vero E6, > 10 μM
  Protein synthesis, puromycilation signal: signal increase
[2]; Vero E6 cells
  Concentration above which inhibition of puromycilation is not sustained: > 10 µM
[3]
  IC50: 40000 to 60000 nM
  Kd: 54000 nM
